Experimental findings from patent US12139461B1, “Piperidine compounds as PDE5 inhibitors” (KING SAUD UNIVERSITY, priority 2024, dated 2024) are described below.

“And” between values parts separate entries of the source, which are not always exact repeats. Equal values may be shown once.

One series deals with male rats. As to the kind of experiment: Copulatory behavior testing. Format: in vivo, rat. Particulars: 5 mg/kg oral; for copulatory efficiency (CE): CE=(IF/MF)x100; for mean intromission interval (MII): MII=EL/IF. On the procedure:
Sexually mature Wistar albino male and female rats weighing 150-180 g (10-14 weeks old) were used in our study. Males were trained for sexual behavior with estrus females, that is, two hours a day for one week, before the investigations. Females were brought into the estrous phase artificially by sequential injection of estradiol benzoate (Sigma) (25 μg/animal) and progesterone (Sigma) (250 μg/animal) subcutaneously, 48 and 4 hours before pairing, respectively. Only those sexually active animals were used subsequently in the study. Sexually active rats were isolated and housed in separate cages at room temperature (24±2° C.) on a reversed day/night cycle with a relative humidity of 50-55% during the experimental period. All sexual studies were performed in a calm laboratory condition under subdued light. For the toxicity study, adult Wistar albino male rats were used separately. Rats were obtained from the Experimental Animal Care Center, College of Pharmacy, King Saud University. Animals were fed with a standard pellet diet and provided water ad libitum. All experiments were performed per the protocols and recommendations of the NIH Guide for the Care and Use of Laboratory Animals and the legal requirements of King Saud University for investigations on humans and animals.
Based on a preliminary study to select the appropriate dose for the promising synthesized compounds, the compounds were administered separately to sexually experienced male rats by oral gavage at 5 mg/kg in a 0.5% sodium carboxymethyl cellulose (CMC) vehicle. […] All solutions were freshly prepared at a concentration that allowed the administration of 1 ml/kg.
After drug treatment, rats were housed separately in transparent cages for acclimation. Thirty minutes after drug treatment, a sexually receptive female rat with estrous phase was introduced in each cage for 30 min and the following parameters of the copulatory behavior were recorded: namely mount latency (ML; time from introduction of the female until the first mount with or without penile insertion, it measures the degree of arousal or sexual interest or libido of the male), mount frequency (MF; the number of mounts until ejaculation, it is a measure of the degree of the male's sexual interest or libido), intromission latency (IL; time from introduction of the female until the first intromission, it measures the degree of sexual excitement and erection), intromission frequency (IF; number of vaginal penetrations until ejaculation, it measures the degree of erection), ejaculation latency (EL; time from the first intromission until ejaculation, it determines the excellent organization of copulation in rats) and post-ejaculatory interval (PEI; time interval between an ejaculation and the following first mount, it measures the refractory period that comes after ejaculation). Latency values represent the number of seconds that elapses from the introduction of the female into the copulatory arena until the male executes the first mount, intromission or ejaculation. Frequency values represent the number of ejaculations, mounts or intromission recorded during the copulatory test.
Depending on these parameters, the following can be calculated: Copulatory efficiency (CE)=(IF/MF)×100 and mean intromission interval (MII)=EL/IF as previously described (Aydogan F. et al., J Ethnopharmacol 257 (2020) 112868; Besong E B. et al., Biochem Res Int 2018 (2018) 2869727, the contents of each of which are hereby incorporated by reference in their entirety). Experiments were repeated blindly three times using new fresh (unused) animals in each experiment.

Series [1] concerns sexually experienced male rats. As to the kind of experiment: Penile erection index (noncontact erection test). It counts as in vivo, rat. Particulars: for ED50: Rattus norvegicus, linear regression of proportion of responding rats, read-out: effective dose ED50 (dose required to give 50% responding rats); for erectile response: oral treatment. On the procedure:
The penile erection index is an established means of determining the erection promoting properties of a substance. Determination of penile erection in a noncontact position was calculated as reported previously (Haripriya V M. et al., Andrologia 51 (2019) e13180; Sharma V. et al., J Ethnopharmacol 143 (2012) 201-206, the contents of each of which are hereby incorporated by reference in their entirety). The sexually experienced male rats of all groups were given the treatment 30 minutes before experimentation. The number of animals for each dose was ten rats in each experiment. […] The results shown are the average of three separate experiments. Control animals were given 0.5% CMC as a vehicle.
The rats of each group were placed in the observation cages (five at a time) divided into half by two sheets of metal mesh, preventing contact but allowing auditory, visual and olfactory stimuli. After a 5-min adaptation period, the test was started by placing an estrus female on the other side of the cage. Penile erection was recorded when the rats bent down to lick their erect penis. Homosexual mounting was also counted when a male rat mounted another male rat performing pelvic thrusts with or without a penile erection. […] The effective dose ED50 (the dose required to give 50% responding rats) for examined compounds was calculated using linear regression analysis by GraphPad software with the proportion of responding rats as the input data and expressed as μmol/kg.

The target in series [2] is Phosphodiesterase type 5 (PDE5) (Homo sapiens (Human), UniProt O76074). As to the kind of experiment: In vitro phosphodiesterase type 5 (PDE5) inhibition assay. Format: biochemical. Particulars: purified PDE5, IMAP FP assay.
Series [3] in a line: Evaluation of LD50 (acute oral toxicity). Format: in vivo. Particulars: rat, in vivo, po; single intragastric administration, rats, 24 h. An excerpt:
(§1) Healthy rats were divided into groups of 10 rats and maintained as described above. Rats had free access to water and food, except for a short fasting period before the treatment with the single oral dose of compounds C9, C14 and C21 or the solvent. The compounds were formulated with 1% CMC. An approximate LD50 was initially determined in a pilot study by a so called ‘staircase method’ using a small number of animals (2 each dose) and increasing doses of tested compounds. Three doses were then chosen for the determination of oral median lethal dose (LDso) (500, 1000 and 2000 mg/kg) and given to three groups of rats (10 in each group). Another group of rats (6 rats) was given equal amounts of 1% CMC orally and served as a control group. […] After 24 hours, the number of dead rats was counted in each group. The percentage of animals that had died at each dose level was transformed to probits, and then LD50 was determined by the method of Miller and Tainter, 1944 as described previously (Randhawa M A, J Ayub Med Coll Abbottabad 21 (2009) 184-185, the contents of which are hereby incorporated by reference in their entirety).

The subject of the next series is rats. As to the kind of experiment: Evaluation of LD50 (acute oral toxicity). Format: in vivo. Conditions: single oral dose 500-2000 mg/kg.
Source text: as §1

The subject of another series is male diabetic rats. As to the kind of experiment: Copulatory behavior testing in diabetic animals. Conditions: 5 mg/kg/day for 14 days; for ejaculation latency (EL) / intromission frequency (IF) / intromission latency (IL) / mount frequency (MF) / mount latency (ML) / post-ejaculatory interval (PEI) / copulatory efficiency (CE) / mean intromission interval (MII): male diabetic rats; for copulatory efficiency (CE): CE=(IF/MF)x100; for mean intromission interval (MII): MII=EL/IF; for sexual function in diabetic rats: versus diabetic control rats. It counts as in vivo, rat. On the procedure: Nearly 90% of the population suffering from diabetic conditions report disturbances in sexual function, encompassing a decrease in libido, impotence and infertility (Kamenov Z A, Exp Clin Endocrinol Diabetes 123 (2015) 141-158). Diabetic was induced in experimental animals by intraperitoneal administration of streptozotocin in separate groups of male animals. Diabetes was induced by a single intraperitoneal injection of freshly prepared 65 mg/kg streptozotocin in […] citrate buffer, pH 4.4 (Mendez J D and Ramos H G, Arch Med Res 25 (1994) 367-375). All rats receiving streptozotocin were given a 10% sucrose solution in the first 48 h after injection to prevent hypoglycemia. After 72 h of streptozotocin administration, rats with fasting serum glucose more than 350 mg/dL were considered as diabetic. Glibenclamide was given by oral gavage once a day (10 mg/kg/day) to diabetic animals to avoid mortality throughout the investigation (Abdel-Aziz A A-M. et al., Eur J Med Chem 46 (2011) 4324-4329). The male rats were trained for sexual behavior study before induction of diabetes and treatment, as mentioned above. Diabetic rats were given a daily oral dose of 5 mg/kg of compounds C9, C14 and C21 for 14 consecutive days. The sexual behavior of the animals was assessed on day 15 of the treatment. The copulatory behavior testing was performed, and CE and MII were calculated.

In turn, `O=S(=O)(c1ccc(Cl)c(Cl)c1)N1CCC(c2ccccc2)CC1` [Compound C11, 1-((3,4-Dichlorophenyl)sulfonyl)-4-phenylpiperidine] yielded a melting point of 217 to 219 °C. Moreover, in the series with male rats, the “efficacy in improving copulatory behavior” value (from here on “efficacy”) is recorded as “more pronounced”, the “ejaculation latency (EL)” value was 318.1 s, the “intromission frequency (IF)” value is given as 8.3 and the “intromission latency (IL)” value was determined as 205.5 s. For the same molecule, in the series on male rats, the “mount frequency (MF)” value was 17.1, the “mount latency (ML)” value was found to be 94.6 s, the “post-ejaculatory interval (PEI)” value turned out to be 393.5 s and the “copulatory efficiency (CE)” value was determined as 48.5%. Moreover, the “mean intromission interval (MII)” value in the series with male rats was 39.6. In addition, the ED50 in series [1] (oral) is 12.7 µmol/kg. Further, the IC50 in series [2] was 56.7 nM and 56.8 nM.

On to `NS(=O)(=O)c1ccc(CNC(=O)CN2CCC(Cc3ccccc3)CC2)cc1` [Compound C14, 2-(4-Benzylpiperidin-1-yl)-N-(4-sulfamoylbenzyl)acetamide], for which the LD50 at 24 h in series [3] is > 2000 mg/kg. For the same molecule, the “toxic symptoms after oral dosing” value in the series on rats was “gradually became drowsy and less responsive”. In the series on male rats, the “efficacy” value was “more pronounced”, the “ejaculation latency (EL)” value was determined as 425.1 s, the “intromission frequency (IF)” value turned out to be 20.6 and the “intromission latency (IL)” value was found to be 122.6 s. In the series with male rats, the “mount frequency (MF)” value is 27.3, the “mount latency (ML)” value worked out at 54.6 s, the “post-ejaculatory interval (PEI)” value amounted to 277.1 s and the “copulatory efficiency (CE)” value came out at 76.2%. The “mean intromission interval (MII)” value in the series with male rats amounted to 20.8. Also, in series [1] (oral), the ED50 turned out to be 10.1 µmol/kg. Besides, the erectile response result in series [1] (1.25-5 mg/kg) was “statistically elevated”. In addition, the “animal response (proportion of responding rats) with dose” value in series [1] (oral, 1.25-5 mg/kg) was “higher response”. Further, in series [1] (oral, dose 1.25 mg/kg), the “penile erection index (PEI)” value turned out to be 26.6 ± 3.4. The “penile erection index (PEI)” value in series [1] (oral, dose 2.5 mg/kg) came out at 46.6 ± 3.3. For the same molecule, in series [1] (oral, dose 5 mg/kg), the “penile erection index (PEI)” value was found to be 90.0 ± 11.5. This molecule also had an IC50 in series [2] of 39.4 nM. For the same molecule, in the series with male diabetic rats, the “ejaculation latency (EL)” value was 208.3 s, the “intromission frequency (IF)” value is listed as 3.8, the “intromission latency (IL)” value was 327.6 s and the “mount frequency (MF)” value is 10.6. In the series with male diabetic rats, the “mount latency (ML)” value is 158.0 s, the “post-ejaculatory interval (PEI)” value came out at 505.6 s, the “copulatory efficiency (CE)” value is listed as 35.6% and the “mean intromission interval (MII)” value was determined as 55.7. For the same molecule, in the series with male diabetic rats, the “sexual function in diabetic rats” value is “restored”.

With `O=S(=O)(c1ccc(Cl)cc1Cl)N1CCC(Cc2ccccc2)CC1` [Compound C21, 4-Benzyl-1-((2,4-dichlorophenyl)sulfonyl)piperidine], the LD50 at 24 h in series [3] is > 2000 mg/kg. The “toxic symptoms after oral dosing” value in the series with rats is “gradually became drowsy and less responsive”. Further, in the series with male rats, the “efficacy” value was “more pronounced”, the “ejaculation latency (EL)” value was 395.0 s, the “intromission frequency (IF)” value worked out at 16.8 and the “intromission latency (IL)” value came to 178.6 s. Moreover, in the series with male rats, the “mount frequency (MF)” value worked out at 26.6, the “mount latency (ML)” value was found to be 72.5 s, the “post-ejaculatory interval (PEI)” value was found to be 298.0 s and the “copulatory efficiency (CE)” value is given as 63.6%. Besides, the “mean intromission interval (MII)” value with male rats turned out to be 23.74. Further, in series [1] (oral), the ED50 was determined as 14.3 µmol/kg. In addition, the erectile response entry in series [1] (1.25-5 mg/kg) is “statistically elevated”. In addition, the “penile erection index (PEI)” value in series [1] (oral, dose 1.25 mg/kg) is 26.5 ± 6.6. Further, in series [1] (oral, dose 2.5 mg/kg), the “penile erection index (PEI)” value is recorded as 46.6 ± 3.3. Moreover, the “penile erection index (PEI)” value in series [1] (oral, dose 5 mg/kg) worked out at 63.3 ± 3.4. Besides, the IC50 in series [2] came to 41.2 nM. Further, in the series on male diabetic rats, the “ejaculation latency (EL)” value was found to be 248.5 s, the “intromission frequency (IF)” value is 4.3, the “intromission latency (IL)” value came to 326.0 s and the “mount frequency (MF)” value turned out to be 10.6. Further, in the series on male diabetic rats, the “mount latency (ML)” value amounted to 154.6 s, the “post-ejaculatory interval (PEI)” value is 510.5 s, the “copulatory efficiency (CE)” value amounted to 41.1% and the “mean intromission interval (MII)” value was 59.1. Further, the “sexual function in diabetic rats” value with male diabetic rats is reported as “restored”.
